The results in this text go back to a melting point compilation (Tetko et al.; mined from patent text by program, amines drawn as free bases though some values may be those of a salt).

A value given as a limit tells only on which side of the number the result lay.

For the compound `COc1ccc(S(=O)(=O)N(Cc2ccccc2)c2c(C(=O)O)cnc3c2c(C)nn3-c2ccccc2)cc1`, the melting point (in general, the temperature, or range, at which the solid turns liquid) is 207 to 210 °C.

In turn, `CCCc1c(OCC(=O)OC)ccc2c1OC(CCCCCCO)CC2=O` (stereo unspecified) came in with a melting point of 93 to 94.5 °C. Under `COc1ccc(N2CCN(c3cc4c(cc3-c3cccnc3)OC(C)(C)C4)CC2)cc1` stands 177 to 180 °C.

Take `Cn1cc(C(=O)NCc2ccc(Cl)cc2)c(=O)c2cc(CN(CCO)Cc3ccccc3)ccc21`: the melting point lay in the range of 133 to 135 °C. Regarding `CC(Cc1ccc(OCc2ccccc2)cc1)C(=O)O` (stereo unspecified), the melting point fell in the range of 93 to 95 °C.

For `Cc1ccc2nc(N)nc(N)c2c1-c1cc(C(F)(F)F)cc(C(F)(F)F)c1`, the melting point is 222 to 225 °C. `Cc1c(-c2ccccc2)nc(N)nc1C1CCN(Cc2cccc(C#N)c2)CC1`: the melting point turned out to be 176 °C. Under `COc1ccc(-c2[nH]c(-c3ccncc3)c(C)c2C(C)=O)cc1` stands 185 to 186 °C; under `N=C(Nc1cc(Cl)cc(NC(=O)/C=C/c2ccccc2C(F)(F)F)c1)c1ccsc1`, 121 to 123 °C. Under `CCN(C(=O)c1cnc(N2CC(C)NC2=O)nc1N)c1cccc(C(F)(F)F)c1` (stereo unspecified) stands 207 to 208 °C. As to `CCCC(=O)c1ccc(N2CCOCC2)cc1`, the melting point was in the range of 64.5 to 65.5 °C. `CC(C)(C)N(Cc1ccccc1)CC(O)c1cc(OCc2ccccc2)cc(OCc2ccccc2)c1` (stereo unspecified) yielded a melting point of 78 to 79 °C. With `CCOc1cccc(N(C(=O)CCC(=O)O)c2cc(C(C)(C)C)c(O)c(C(C)(C)C)c2)c1`, the melting point was 128 to 130 °C. Consider `COC(=O)C[C@H](C(=O)OC)N1C(=O)[C@@H](N2C(=O)c3ccccc3C2=O)[C@H]1C=Cc1ccccc1`, for which the melting point was in the range of 138 to 140 °C. In turn, `Cc1c(N2C[C@@H](NC(=O)C(F)(F)F)C3(CC3)C2)c(F)c(N)c2c(=O)c(C(=O)O)cn(C3CC3)c12` came in with a melting point of 246 to 248 °C.

With `Cc1cc(C)c(/C=C/C=O)c(Br)c1`, the melting point was in the range of 99 to 103 °C. The compound `CC(NC(=O)c1cccnc1)c1ccccc1` (stereo unspecified) returned a melting point of 88 to 89 °C. Under `O=CC(=Cc1ccc(OC(=O)c2ccc(Br)cc2)cc1)C(C=O)=Cc1ccc(OC(=O)c2ccc(Br)cc2)cc1` stands 223 to 225 °C; under `N#Cc1ccc(C(=O)c2cc(C(F)(F)F)ccc2S)cc1`, 210 °C.

Compound `Cc1ccc(CCOc2ccnc3c(OCCc4ccc(C)cc4)cccc23)cc1` came in with a melting point of 142 to 143 °C. The compound `CCOC(=O)c1cn2c(ccc3ccc(OC)cc32)n1` yielded a melting point of 146 to 148 °C.

The compound `CC(C)N1C(=O)c2ccccc2N(C(=O)CCl)S1(=O)=O` came in with a melting point of 133 to 135 °C. The value for `O=S1(=O)c2ccccc2Cc2ccc(-c3nnn[nH]3)cc21` was 233 °C. Under `COc1cc2c(cc1-c1cnccn1)-c1c(-c3cncs3)c3c(n1CC2)C(=O)N(C(C)(C)C)CCCOC3` stands 235 to 236 °C; under `CN1C(=O)CC[C@]2(C)c3ccc(SCc4ccccc4)cc3CC[C@@H]12`, 137 to 138 °C; under `COc1ccc(C(=O)Nc2nc3ccc(N(C)C)cc3c(NCc3ccccc3)c2C#N)cc1`, 185 °C. The value for `Cc1oc(-c2ccco2)nc1COc1ccc(Cc2nc(-c3ccccc3)c(CCC(=O)O)o2)cc1` was 74 to 76 °C; that for `CC(=O)c1ccc2c(c1)CCCN2C(=O)OC(C)(C)C` was 80 to 82 °C. In turn, `CC(=O)OC1CSC(Oc2cncc(-c3ncccc3C)c2)C(OC(C)=O)C1OC(C)=O` (stereo unspecified) displayed a melting point of 148 to 150 °C. `Cc1ccc(-c2ccc3c(c2)C=C(C(=O)Nc2ccc(CN(C)C4CCOCC4)cc2)CCN3C=O)cc1` gave a melting point of 229 to 230 °C. In turn, `CN1Cc2cccnc2N(c2ccc(F)cc2)C1=O` gave a melting point of 212 to 213 °C. For the compound `CNc1nc(Cc2c(Cl)cccc2Cl)nc(Nc2ccc(C#N)cc2)n1`, the melting point was in the range of 229 to 230 °C. Turning to `CC(=O)OCCN1CCC(CNC(=O)[C@@H]2CCCN2S(=O)(=O)c2ccc(Cl)c(COc3cccc4c(-n5ccnc5)cc(C)nc34)c2Cl)CC1`, the melting point was 93 °C.

For the compound `O=CNc1ccc(SC(CCc2ccc(Cl)cc2)Cn2ccnc2)cc1` (stereo unspecified), the melting point lay in the range of 91 to 94 °C. Turning to `O=C(O)CCCCN1C(=O)c2ccc(C(=O)O)cc2C1=O`, the melting point is 223 °C.

In turn, `Cc1ccc2c(c1)C(=O)N(C)Cc1c(C(N)=NO)ncn1-2` came in with a melting point of 227 to 229 °C.

The compound `COC(=O)c1ccc(S(C)(=O)=O)nc1OC` showed a melting point of 88 to 90 °C. The value for `Cc1cc(C)c(C(=O)P2(=O)Oc3ccccc3-c3ccccc32)c(C)c1` (stereo unspecified) was 109 °C; that for `COC(=O)c1sc2nc(C)c(Cl)c(=O)n2c1C` was 140 to 141 °C. Under `CCCCCC1C=CC(c2ccc(Br)cc2)=CC1` (stereo unspecified) stands 74 °C.

Turning to `O=[N+]([O-])c1ccc(-c2cc(O)ccc2-c2ncnc(-c3ccccc3)n2)cc1`, the melting point fell in the range of 238 to 240 °C. As for `COc1ccc(CCNC(=O)C2=C(C(=O)Nc3cc(OC4CCCC4)c(Cl)cc3F)CCCC2)cc1OC`, the melting point was in the range of 159 to 161 °C. Under `COc1cc(C(C)C(=O)O)cc2ccc3ccccc3c(=O)c12` (stereo unspecified) stands 144 to 147 °C; under `Clc1cccc(Oc2ncccc2Br)c1`, 88 to 90 °C.

On to `CCOC(=O)COc1cccc(C(=O)Nc2ccccc2Sc2ccc(-c3nnn[nH]3)cc2)c1`, for which the melting point was 88 to 90 °C. Consider `CCCC=Cc1c(C(C)C)nc(C(C)C)c(CO)c1-c1cccc(C)c1`, for which the melting point was 94 to 97 °C.

`N#Cc1ccc[nH]c1=S` registered a melting point of 243 to 246 °C. Under `O=C(c1c(F)cccc1F)N1COCN(c2ccc(SC(F)(F)C(F)(F)C(F)(F)F)cc2F)C1=O` stands 44 to 46 °C; under `ClCCCCSCc1ccc2ccccc2c1`, 47 to 49 °C; under `O=C1CCC(N2CCOc3cc(Br)ccc32)CC1`, 102 °C.

`CCCNc1ccc(C=O)cc1[N+](=O)[O-]` gave a melting point of 73.6 °C.

As for `CSc1c(C(Cc2ccccc2)C(=O)O)cc(C)c2c3ccccc3n(Cc3ccccc3)c12` (stereo unspecified), the melting point fell in the range of 199 to 200 °C. Under `CCOC(=O)C(=CN(CC)c1cccs1)C(=O)OCC` stands 41 to 42 °C. The value for `N=C(NNC(=O)c1ccccc1O)C(Cl)(Cl)Cl` was 168 to 169 °C. In the case of `CC1(C)CC(NC(=O)NCc2ccccc2)c2cc(C#N)ccc2O1` (stereo unspecified), the melting point is 140 to 141 °C. Turning to `COC(=O)c1ccc(Cl)cc1-n1c(CCl)nc2ccccc2c1=O`, the melting point was 155 to 157 °C. For the compound `CC1Sc2c(C(=O)O)c(=O)c3cc(F)c(N4CCC(N)C4)c(Cl)c3n21` (stereo unspecified), the melting point is > 300 °C. Under `Brc1cnc2nc(N3CCN(CCCCOc4ccccc4)CC3)nn2c1` stands 122 to 123 °C; under `OCCCCCCCCOc1ccc2ccccc2c1`, 67 to 69 °C; under `O=C1Cc2c([nH]c3ccc(Br)cc23)-c2ccccc2N1`, > 300 °C. `FC(F)(F)Oc1ccc(C2CCC3(CC2)OCCO3)cc1` gave a melting point of 41.2 °C. As to `Oc1c(-c2ccccc2)cc(C2c3ccccc3-c3ccccc32)cc1-c1ccccc1`, the melting point is 144 to 145 °C. The compound `O=C(O)c1ccc(CN2C(=O)C3(COc4cc5c(cc43)OCCO5)c3ccccc32)o1` (stereo unspecified) gave a melting point of 192 to 195 °C. Under `CN(c1cccc2cc(-c3ncc(CC(=O)N4CCOCC4)s3)[nH]c12)S(=O)(=O)c1cccs1` stands 199 to 200 °C; under `CCC(N)C1CCN(c2c(F)cc3c(=O)c(C(=O)O)cn(C4CC4)c3c2F)C1` (stereo unspecified), 177 to 179 °C; under `COc1ccccc1Sc1c(Cl)nc(C)nc1NS(=O)(=O)c1ccc(C(C)(C)C)cc1`, 155 °C.

`ClC1=Nc2ccccc2Sc2ncccc21` showed a melting point of 134 to 135 °C.

In turn, `CC(=N)Nc1ccc(CCc2nc(NC(C)=O)sc2Cc2ccc(S(C)(=O)=O)cc2)cc1` gave a melting point of 81.5 to 83 °C. The value for `CCc1nc(C)n2nc(C(=O)O)nc2c1Cc1ccc(-c2ccccc2-c2nnn[nH]2)cc1` was 194 to 198 °C. The value for `C=CC(C)(CCC=C(C)C)OCC(=O)c1cc(C(C)C)c(O)c(C(C)C)c1` (stereo unspecified) was 71 to 72 °C. Under `CCOC(=O)CN1C(=O)[C@@H](N)[C@H](c2ccccc2)Sc2cc(Cl)ccc21` (relative stereo) stands 173 to 175 °C; under `Cc1ncc2n1-c1ccc(Cl)cc1C(c1ccccc1)=NC2`, 187 to 188 °C. Regarding `CCn1c(=O)c2nc(-c3ccc(/C=C/C(=O)O)cc3)[nH]c2n(C)c1=O`, the melting point was > 300 °C.

In the case of `COc1cc(NC(=O)C#Cc2ccc(C(F)(F)F)cc2Cl)ccc1OCCN1CCC(OC)CC1`, the melting point was in the range of 195 to 197 °C. The value for `Cc1nn(Cc2ccccc2)c2c1C(=O)CC(C)(C)C2` was 133 to 134 °C. In turn, `CCNC(=O)c1ccc(-n2nnc(C(=O)NC3CC3)c2CSC)cc1` showed a melting point of 192 °C. Under `Cc1cc(N)n(C(=NO)c2cccc([N+](=O)[O-])c2)n1` stands 224 to 226 °C. `CSc1cccc(Oc2ncc(F)cc2C(=O)N[C@H]2CC[C@@H](CO)CC2)c1`: the melting point lay within 123 to 126 °C. The value for `ClC1CCCOC1c1ccccc1` (stereo unspecified) was 39.5 to 40.5 °C; that for `O=C1N(Cc2ncccc2C(F)(F)F)c2ccccc2C12COc1ccc3c(c12)OCCO3` (stereo unspecified) was 245 to 247 °C.

Consider `O=c1ccc(-c2ccc(OCCCCl)cc2)n[nH]1`, for which the melting point was 191 to 193 °C. The value for `Cc1ccc2[nH]c3c(c2c1)C(=O)CCC3` was > 255 °C. The value for `CCCCCCCCCCCCc1ccc2c(Cl)cccc2c1O` was 68 to 70 °C; that for `CC(C)(C)O[C@@H]1C[C@@H](COCc2ccccc2)N(S(=O)(=O)c2ccc3ccccc3c2)C1` was 101 to 103 °C; that for `CC(C)=CCN1CCc2c(sc(N)c2C(=O)c2ccc(I)cc2)C1` was 148 to 150 °C.

In turn, `CCOC(=O)c1cc2c3n(ccc-2n1)CC=N3` had a melting point of 154 to 156 °C.
